{"source": "paper PMC9387934", "about": "“Randomized single oral dose phase 1 study of safety, tolerability, and pharmacokinetics of Iminosugar UV-4 Hydrochloride (UV-4B) in healthy subjects” (PLoS Neglected Tropical Diseases, 2022)", "assay": "Seven-day repeat dose non-GLP study in rats (UV4-COV-0045)", "assay_type": "in vivo, rat", "details": "for a 60 kg human", "procedure": "The seven-day repeat dose study in rats was conducted at 10 mg/kg/dose TID (30 mg/kg/day), 25 mg/kg/dose TID (75 mg/kg/day), and 60 mg/kg/dose TID (180 mg/kg/day).\nAt 10 mg/kg/dose, mild to moderate clinical hematology and clinical chemistry changes and histopathological changes in the gastrointestinal tract (GI) similar to dogs and mice were observed; therefore this dose exceeded the no observed effect level (NOEL). At […]\n60 mg/kg/dose there were similar findings to mice and dogs but a unique finding of possible […]\nskin, paws and/or feet. These findings appeared within 120 minutes of treatment with the first or second daily dose 60 mg/kg/dose (TID) on Day 1 or Day 2. This response was transient and self-limiting, and was not observed after Day 2 in either the single or repeated doses. […]\nThe inverted AST/ALT ratio […]\nand lymphocyte depletion were reversible. Thymus weight decrease in females was reversible but thymus weight decreases in males were not. However, because the apparent […]\nmicroscopic thymus findings, thymus weight differences at the recovery necropsy were considered not toxicologically important. In mice at 25 mg/kg/dose (75 mg/kg/day) there were decreased thymus weights (males), follicular epithelium vacuolation in the thyroid, and lymphoid depletion of the thymus (males). […]\nDaily exposure [calculated as 3 x AUC(0-8)] is estimated at 32,820 ng•h/mL. […]", "note": "Structures can show the parent of a compound that is named as a salt.", "data": [{"smiles": "COCCCCCCCCCN1C[C@H](O)[C@@H](O)[C@H](O)[C@H]1CO", "note": "[UV-4B, N-(9’-methoxynonyl)-1-deoxynojirimycin hydrochloride]", "values": [{"measurement": "HED of 60 mg/kg/dose in rats", "value": 580, "unit": "mg"}]}]}
